What was measured:
Oryctolagus cuniculus [1] = organism: Oryctolagus cuniculus; experiment: Competitive inhibition of PAF-induced platelet aggregation was measured as IC50 ratio = [1000 x the IC50 of the test compound divided by the IC50 of a standard (3)]; type: functional
Oryctolagus cuniculus [2] = organism: Oryctolagus cuniculus; experiment: Activity against adenosine diphosphate (ADP) induced platelet aggregation
[3] = test system: Platelet-activating factor receptor (Oryctolagus cuniculus); experiment: Competitive inhibition of PAF-induced platelet aggregation was measured as IC50 ratio is (1000 x the IC50 of the test compound divided by the IC50 of a standard)
Oryctolagus cuniculus [4] = organism: Oryctolagus cuniculus; experiment: Activity against U-46,619 induced platelet aggregation; no effect at 20 uM; type: functional

| IC50 ratio (Oryctolagus cuniculus [1]) | IC50 (Oryctolagus cuniculus [2]) | IC50 ratio [3] | IC50 (Oryctolagus cuniculus [4]) | Compound |
| --- | --- | --- | --- | --- |
| 15000 |  |  |  | COc1cc(C(=O)OCC[N+](C)(C)C)cc(OC)c1OC.[I-] |
|  | Not Active | 1500 |  | CCCCCCOc1c(OC)cc(C(=O)OCCCCN(C)C)cc1OC |
|  | Not Active | 540 |  | CCCCCOc1c(OC)cc(C(=O)OCCCC[N+](C)(C)C)cc1OC.[I-] |
|  |  | 103 |  | CCCCCCCCOc1c(OC)cc(C(=O)OCCCC[N+](C)(C)C)cc1OC |
|  |  | 153 |  | CCCCCCCCCCOc1c(OC)cc(C(=O)OCC[N+](C)(C)C)cc1OC |
|  | Not Active | 164 |  | CCCCCCOc1c(OC)cc(C(=O)OCCCC[N+](C)(C)C)cc1OC.[I-] |
|  | Not Active | 1000 |  | CCCCCCOc1c(OC)cc(C(=O)OCC[N+](C)(C)C)cc1OC.[I-] |
|  | Not Active | 3370 |  | CCCCOc1c(OC)cc(C(=O)OCC[N+](C)(C)C)cc1OC.[I-] |
|  |  | 203 |  | COc1cc(C(=O)OCCCC[N+](C)(C)C)cc(OC)c1OCCC1CCCC1 |
|  |  | 263 |  | CCCCCCOc1c(Cl)cc(C(=O)OCCCC[N+](C)(C)C)cc1OC |
|  |  | 144 |  | CCCCCCOc1c(OC)cc(C(=O)OCc2ccccc2C[N+](C)(C)C)cc1OC |
|  | Not Active | 7000 |  | CCCCCCOc1c(OC)cc(C(=O)OCCC[N+](C)(C)C)cc1OC.[I-] |
|  | Not Active | 199 |  | CCCCCCCOc1c(OC)cc(C(=O)OCCCC[N+](C)(C)C)cc1OC.[I-] |
|  | Not Active | 533 |  | COc1cc(C(=O)OCCCC[N+](C)(C)C)cc(OC)c1OCc1ccccc1.[I-] |
|  | Not Active | 115 |  | CCCCCCOc1c(OC)cc(C(=O)OCCCC[N+](CC)(CC)CC)cc1OC.[I-] |
|  |  | 270 |  | CCCCCCOc1c(OC)cc(C(=O)OCCCCCC[N+](C)(C)C)cc1OC |
|  |  | 820 |  | CCCCCCOc1c(OC)cc(CC(=O)OCCC[N+](C)(C)C)cc1OC |

Further lines, the compound ahead of its results:

| Compound | IC50 ratio (Oryctolagus cuniculus [1]) | IC50 (Oryctolagus cuniculus [2]) | IC50 ratio [3] | IC50 (Oryctolagus cuniculus [4]) |
| --- | --- | --- | --- | --- |
| CCCCCCOc1c(OC)cc(C(=O)OCCCC[n+]2ccccc2)cc1OC.[I-] |  | Not Active | 107 |  |
| CCCCCCOc1c(OC)cc(CCCCCC[N+](C)(C)C)cc1OC |  |  | 65 |  |
| CCCCCCOc1c(OC)cc(C(=O)OCCc2scnc2C)cc1OC |  |  | 116 |  |
| CCCCCCOc1c(OC)cc(C(=O)Oc2ccccc2CC[N+](C)(C)C)cc1OC |  |  | 507 |  |
| CCCCCCOc1ccc(C(=O)OCCCC[N+](C)(C)C)cc1OC.[I-] |  | Not Active | 1740 |  |
| CCCCCCOc1c(OC)cc(C(=O)Oc2cccc3ccc[n+](C)c23)cc1OC.[I-] |  | Not Active | 11.7 |  |
| CCCCCCOc1c(OC)cc(/C=C/CCCC[N+](C)(C)C)cc1OC.[I-] |  | Not Active | 133 |  |
| CCCCCCOc1c(OC)cc(C(=O)OCCc2sc[n+](C)c2C)cc1OC.[I-] |  | Not Active | 114 |  |
| COc1cc(C(=O)OCCCC[N+](C)(C)C)cc(OC)c1OCC1CCCCC1.[I-] |  |  | 443 | Not Active |
| CCCCCCCCCCCCCCCCOc1c(OC)cc(C(=O)OCCCC[N+](C)(C)C)cc1OC |  |  | 35 |  |
| CCCCCCOc1c(OC)cc(C(=O)OCCCC[n+]2ccsc2)cc1OC |  |  | 48 |  |
| CCCCCCOc1ccc(C(=O)OCCCC[N+](C)(C)C)cc1 |  |  | 1400 |  |
| CCCCCCOc1c(OC)cc(C(=O)Oc2ccc3c(ccc[n+]3C)c2)cc1OC |  |  | 13 |  |
| CCCCCCOc1c(C)cc(C(=O)OCCCC[N+](C)(C)C)cc1C |  |  | 265 |  |
| CCCCCCOc1c(OC)cc(OC(=O)CCCC[N+](C)(C)C)cc1OC.[I-] |  | Not Active | 833 |  |
| CCCCCCOc1c(OC)cc(CCCCc2scnc2C)cc1OC |  |  | 14.7 |  |
| CCCCCCOc1c(OC)cc(C(=O)OCCCC[n+]2cccc3ccccc32)cc1OC.[Cl-] |  | Not Active | 57.3 |  |
| CCCCCCOc1c(OC)cc(C=CCCCC[N+](C)(C)C)cc1OC.[I-] |  | Not Active | 200 |  |

— ChEMBL document CHEMBL1128601, “Development of a novel series of trialkoxyaryl derivatives as specific and competitive antagonists of platelet activating factor” (J Med Chem, 1995)
